SMILES strings stand for the structures. Read-outs that look alike come from different tables or passages of the source.

For data set [1], the system named is A. cepa root meristem cells. The data set is described as follows: Effect on cell division (mitotic index analysis). Type of data set: cell-based, Allium cepa. As to conditions: for inhibition of cell division: 0 to 1000 μM; for reversibility of inhibition of cellular division: 100 μM, seeds washed at 3 days; for proportion of cells with abnormal configurations: chromosome aberrations, nuclear abnormalities, micronuclei. The method, then:
Onion seeds (Allium Cepa L. Evergreen Longwhite Bunching, Burpee & Co, 2012, EE.UU) germination was carried out for 7 days with a 14-h photoperiod in 9-cm-diameter Petri dishes on a filter paper disk that was moistened with a dilution (2.5 mL) of test compound or control. Stock solutions of test compounds (100×) were prepared in acetone, and aliquots were diluted in distilled water to get the final concentration. The control consisted of water with the same proportion of acetone (1% v/v) applied in the treatments.
At 7 days of incubation, samples were processed for mitotic index analysis according to Armbruster et al.^25 Twenty root tips (1-cm sections) were fixed in glacial acetic acid:absolute ethanol (1:3 v/v) for 30 min. The segments were incubated with 5 N HCl at 25° C. for 1 h, and washed several times with distilled water. After that, segments were stained with Schiff's reagent for 45 min in the dark at 25° C. Stained meristematic regions were identified as purple tips. The root segments were transferred with tweezers to a drop of 45% acetic acid in water on a microscope slide. The tips were cut with a razor blade, and a cover slip was carefully placed over the tips and gently squashed by applying slight and constant pressure directly over the tissues. The edge of the cover slip was sealed with nail polish to delay the evaporation of acetic acid. The mitotic index was calculated by tallying the cells in various stages of mitosis. At least 1,000 cells/slide and in triplicate (3,000 cells per treatment) were counted for suitable statistical analysis of data. An Olympus BX60 microscope (Olympus, Center Valley) was used, and cells with abnormal mitotic configurations were counted as a separate class.
This procedure was slightly modified to evaluate if cell division inhibition caused by furanochromones was reversible. For this experiment onion seeds were incubated with solutions containing compounds of formulas III and IV for 3 days. After this period, all seeds were washed three times with distilled water and placed in new Petri dishes on moistened filter paper disks with distilled water (Wash+treatment). Seeds were then incubated for 4 more days, after which a mitotic index analysis was performed. As a reference to compare results, another set of onion seeds was kept with test compounds or control for 7 days (Wash−treatment) before analysis.

For the next data set, the system named is cucumber cotyledon disks. The data set is described as follows: Detection and measurement of reactive oxygen species (DCFDA). Type of data set: cell-based. The note with it: 300 μM; for ROS levels: 16 h darkness then high light intensity 5 h; for ROS generation: complete darkness for 30 h. The method, then:
ROS cellular localization was determined by confocal microscopy using the fluorescent probe 2′,7′-dichlorofluorescein diacetate (DCFDA). Cucumber cotyledon disks (1 cm) were treated as described for the electrolyte leakage assay. Five disks were placed in 5 cm-Petri plates and exposed to different dilutions of compounds of formulas III and IV (0, 100 and 300 μM). Disks were incubated in darkness for 16 h before exposure to high light intensity for 5 h, or in darkness for 30 h. As positive control, disks were exposed to the same solvent as treated tissues but with 10 mM hydrogen peroxide (H2O2) for 30 min in the light. After each treatment, they were vacuum-infiltrated in the dark with 50 μM DCFDA in 10 mM Tris-HCl pH 7.5, and ROS were visualized in an Eclipse TE-2000-E2 Nikon confocal microscope with excitation at 488 nm and emission at 515/530 nm. Green fluorescence intensities were quantified using the image processing package Fiji of ImageJ software.

The test system of data set [2] is creeping bentgrass (A. stolonifera). In words: Germination bioassay with creeping bentgrass. Type of data set: in vivo, Agrostis stolonifera. Set-up: key to Phytotoxicity at day 7, Creeping bentgrass: 0 = no effect; 5 = no growth or germination. The note with it: for Phytotoxicity at day 7, Creeping bentgrass: 1 mM, 24-well plates, rating scale of 0 to 5; for inhibition at 1000 µg/mL: Agrostis stolonifera, 168 h, creeping bentgrass, 1 mg/mL, day 7; for creeping bentgrass germination: fractions at 1 mg/mL. The method, then:
DCM extract of flowers of A. visnaga (1.6 g) was divided in two 800 mg halves and each one was subjected to column chromatography using an Isolera One system (Biotage), equipped with UV detector (302 and 365 nm) and automatic fraction collector. Separation was performed by normal-phase chromatography column using a SNAP Cartridge KP-Sil (37×157 mm, 50 μm irregular silica, 100 g, Biotage) and a pre-packaged SNAP Samplet Cartridge KP-Sil (37×17 mm, Biotage). A full gradient of hexane:ethyl acetate was used for elution, from 100:0 to 0:100 over 3000 ml. Flow was 40 ml/min and 25 ml fractions were collected. Equal fractions were combined based on similarities on their TLC and chromatogram profiles providing nineteen fractions named I to XIX. All fractions were evaluated for their phytotoxicity on germination bioassay of lettuce (L. sativa) and creeping bentgrass (A. stolonifera).
(§1) A filter paper and 5 lettuce or 10 mg of creeping bentgrass seeds were placed in each well of a 24-well plate. Stock solutions (10×) of test compounds were prepared in acetone. 180 μl of distilled water were added to each well together with 20 μl of stock solution or acetone in solvent control. Final concentration of acetone was 10% v/v. Plates were sealed with Parafilm, and incubated at 26° C. in a growth chamber set at 173 μmol m^−2 s^−1 continuous photosynthetically active radiation. Phytotoxic activity was qualitatively evaluated by visually comparing germination in each well with solvent control at 7 days. A qualitative estimation of phytotoxicity was obtained by using a rating scale of 0 to 5, where 0 was no effect, and 5 was no germination of seeds. This procedure was also used for testing the phytotoxicity of pure compounds on ryegrass. On this experiment 12-well plates were used. 10 seeds were placed per well and final volume was 300 μl in each one. During dose-response bioassays used for IC50 determination, germination percentage and length of plants were measured at 7 days in order to determine the concentration required for 50% germination and growth inhibition (IC50). All experiments were done in triplicate.

The test system of data set [3] is ryegrass (Lolium multiflorum). The data set is described as follows: Dose-response bioassay with ryegrass. Type of data set: in vivo. The note with it: 168 h, 7 days. As for the experimental part: as §1
Using method described in Example 1, compounds of Formula III and IV above were tested against lettuce and ryegrass.
The percentage of germination and length of plants were determined at 7 days. Data represents means of three replicates±SD. The IC50 values, for both germination and growth inhibition by compounds III and IV on lettuce and ryegrass, were obtained from estimated parameters in the regression curves.
Statistical Analysis. Data from dose-response experiments were analyzed by a log-logistic model^37-38 using the dose-response curve module^39 of R software version 2.2.1.^40 Concentrations required for 50% germination or growth inhibition relative to control (IC50 values) were obtained from estimated parameters in the regression curves. The standard error (SE) of each estimation is provided. Data from phytotoxicity bioassays in the laboratory and greenhouse, ROS and cell death quantifications were analyzed by ANOVA using the InfoStat statistical software version 2015,^41 and Scheffe's test was employed to compare the means at α=0.05.

The mark [4] stands for this setting: read-out: IC50(μM) ± SE to inhibit germination.
Setting [5] is: read-out: IC50(μM) ± SE to inhibit growth.

The term inhibition denotes the percentage by which the read-out fell short of the control. The IC50 is the concentration that gives 50% inhibition. On to `COc1c2occc2c(OC)c2c(=O)cc(C)oc12` [Formula III, 4,9-dimethoxy-7-methyl-5H-furo[3,2-g]chromen-5-one], for which, in data set [1] (7 days), the “inhibition of cell division” value is given as “inhibited cell division in a dose-dependent manner”. Further, in data set [1], the “reversibility of inhibition of cellular division” value is listed as “irreversible” and the “proportion of cells with abnormal configurations” value is “higher than in the control”. In the data set with cucumber cotyledon disks, the ROS levels result is reported as “significantly higher than in the control” and the ROS generation result is given as “not detected”. In addition, in data set [2], the “Phytotoxicity at day 7, Creeping bentgrass” value worked out at 5; the inhibition at 1000 µg/mL is 100%; the creeping bentgrass germination entry is “completely inhibited”. Besides, the IC50 in data set [3] (setting [4]) was 637 ± 112 µM. The IC50 in data set [3] (setting [5]) is 244 ± 37 µM.
For the molecule `COc1c2ccoc2cc2oc(C)cc(=O)c12` [Formula IV, 4-methoxy-7-methyl-5H-furo[3,2-g]chromen-5-one], the “inhibition of cell division” value in data set [1] (7 days) is given as “inhibited cell division in a dose-dependent manner”. Besides, in data set [1], the “reversibility of inhibition of cellular division” value is “irreversible” and the “proportion of cells with abnormal configurations” value was “higher than in the control”. Further, the “inhibition of onion cell division” value in data set [1] (300 μM, 7 days) was “completely inhibited”. Besides, in the data set with cucumber cotyledon disks, the ROS levels entry was “significantly higher than in the control” and the ROS generation result was “not detected”. In data set [2], the “Phytotoxicity at day 7, Creeping bentgrass” value is recorded as 5; the inhibition at 1000 µg/mL was 100%; the creeping bentgrass germination result is reported as “completely inhibited”. For the same molecule, the IC50 in data set [3] (setting [4]) worked out at 502 ± 115 µM. Further, the IC50 in data set [3] (setting [5]) is 214 ± 23 µM.
